Test results taken from US20030220415A1, “Heterocyclic amine diol compounds and their biocidal derivatives” (priority 2002, published 2003).
Like-named read-outs stand apart in the source and are kept apart here.

Test system: Staphylococcus aureus bacteria
Settings: 1957 mg/L solution, chlorine-demand-free water pH 7, ambient temperature

Q: Which “inactivation of Staphylococcus aureus” value (contact time 30 min) does the source give for `CC1(C)C(=O)N(CN(CCO)CCO)C(=O)N1Cl` [chlorinated heterocyclic amine diol, 1-chloro-3-[1-bis(N,N-2-hydroxyethyl)aminomethyl]-5,5-dimethyl-1,3-imidazolidin-2,4-dione] here?
A: > 5 logs

Q: What about the “inactivation of Staphylococcus aureus” value (contact time 60 min) of the same compound?
A: > 5 logs
